What was measured:
PyAeADHII [1] = target: T1, PyAeADHII (Pyrobaculum aerophilum, UniProt Q8ZUP0); test: X-ray co-crystal structure, […] Å; assay type: binding; details: modelled as NADPH, NADP+ not excluded; pH 7.5
T1 construct: gene PAE2687; structural zinc only (Cys-91, Cys-94, Cys-97, Cys-105); Asn-39, Ser-61, Ile-147, Arg-88 in active site

PyAeADHII [2] = target: T1, PyAeADHII; test: spectrophotometric NADPH oxidation at […] nm; assay type: biochemical; details: 0.3 mM NADPH, 50 mM sodium phosphate pH 7.5, 37 °C; reduction to alpha-tetralol

T1 sequence (Q8ZUP0 entry or part of it): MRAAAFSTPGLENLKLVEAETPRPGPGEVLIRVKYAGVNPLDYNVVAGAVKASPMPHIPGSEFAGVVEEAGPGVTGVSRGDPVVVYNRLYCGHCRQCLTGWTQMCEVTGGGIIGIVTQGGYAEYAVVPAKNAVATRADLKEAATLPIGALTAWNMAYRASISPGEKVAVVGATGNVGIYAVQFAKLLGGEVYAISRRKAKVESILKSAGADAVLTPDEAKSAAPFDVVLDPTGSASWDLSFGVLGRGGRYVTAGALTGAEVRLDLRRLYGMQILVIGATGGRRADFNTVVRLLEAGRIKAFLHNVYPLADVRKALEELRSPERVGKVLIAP

Structure (SMILES) | X-ray co-crystal structure, 2.35 Å (PyAeADHII [1]) | spectrophotometric NADPH oxidation at 340 nm (PyAeADHII [2])
NC(=O)C1=CN([C@@H]2O[C@H](COP(=O)(O)OP(=O)(O)OC[C@H]3O[C@@H](n4cnc5c(N)ncnc54)[C@H](OP(=O)(O)O)[C@@H]3O)[C@@H](O)[C@H]2O)C=CC1 [NADPH] | we determined the co-crystal structure of PyAeADHII monomer bound to NADPH | –
O=C1CCCc2ccccc21 [α-tetralone] | – | The standard assay for the reduction reaction of α-tetralone
